Results from patent US9233933B2, “4,4-disubstituted-1,4-dihydropyrimidines and the use thereof as medicaments for the treatment of hepatitis B” (priority 2012, dated 2016).
Read-outs that look alike come from different tables or passages of the source.

How the values were obtained:
[1] = tested on: HepG2 cells; assay: Cytotoxicity in HepG2 cells using CellTiter-Blue, same incubation period as HepG2.2.15 assay; type: cell-based; conditions: 6 days
Procedure: (§1) Cytotoxicity of the compounds was tested in HepG2 cells using CellTiter-Blue, with the same incubation period and dose range as in the HepG2.2.15 assay.

[2] = tested on: HBV; assay: anti-HBV activity in stable transfected HepG2.2.15 cell line, HBV DNA from secreted virions by realtime PCR; type: cell-based, Hepatitis B virus; conditions: HepG2.2.15 cells, 6 days of treatment, secreted virion HBV DNA, read-out: HBV-HepG2 2.15 EC50
[3] = tested on: HepG2 cells; assay: Cytotoxicity in HepG2 cells incubated 4 days, Resazurin assay; conditions: read-out: HepG2 4 days CC50
[4] = tested on: HBV; assay: anti HBV activity in HepG2.117 cell line (Tet-off, inducibly HBV producing), intracellular HBV DNA by realtime PCR; type: cell-based, Hepatitis B virus; conditions: HepG2.117 cells, 3 days of treatment, intracellular HBV DNA, read-out: HepG2 117 EC50
[5] = tested on: HepG2 cells; conditions: human, 4 days
[6] = Cytotoxicity in HepG2 cells using CellTiter-Blue, same incubation period as HepG2.2.15 assay; type: cell-based; conditions: human, HepG2 6 days CC50
Procedure: as §1

[7] = in vitro; conditions: human, HepG2 4 days CC50
[8] = HepG2 cells, CellTiter-Blue, read-out: HepG2 6 days CC50
[9] = Hepatitis B virus, HepG2.2.15, 144 h
[10] = Hepatitis B virus, HepG2.117, 72 h

CCOC(=O)C1=C(CN2CCOCC2)NC(c2ccccn2)=NC1(C)c1ccc(F)cc1 (racemic) [Compound 4a]
CC50 [1, 8]: 92 µM | EC50 [2]: > 100 µM

CCOC(=O)C1=C(CN2CCOCC2)NC(c2ccccn2)=NC1(C)c1ccc(F)cc1 (racemic) [Compound 4b]
CC50 [1, 8]: 92.4 µM | CC50 [3]: > 50 µM | EC50 [4]: 0.76 µM | EC50 [2]: 0.643 µM

CCOC(=O)C1=C(CN2CCOCC2)NC(c2ccccn2)=NC1(c1ccc(F)cc1)C(F)(F)F (racemic) [Compound 34]
CC50 [1, 8]: 20 µM | EC50 [2]: 16.2 µM

CCOC(=O)C1=C(CN2CCOCC2)NC(c2ccccn2)=NC1(c1ccc(F)cc1)C(F)(F)F (racemic) [Compound 34a]
CC50 [1, 8]: 30.9 µM | EC50 [2]: > 100 µM

CCOC(=O)C1=C(CN2CCOCC2)NC(c2ccccn2)=NC1(c1ccc(F)cc1)C(F)(F)F (racemic) [Compound 34b]
CC50 [1, 8]: 41.6 µM | EC50 [2]: 8.23 µM

N#CC1=C(CN2CCOCC2)NC(c2ccccn2)=NC12CCCc1cc(F)ccc12 (single isomer, unassigned) [Compound 60b]
CC50 [1, 8]: > 100 µM | CC50 [3]: > 100 µM | EC50 [4]: 1.28 µM | EC50 [2]: 2.26 µM

COC(=O)C1=C(CN2CCOCC2)NC(c2ccccn2)=NC12CCc1c(F)cccc12 (single isomer, unassigned) [Compound 66b]
CC50 [5]: > 100 µM | CC50 ([1]; human): > 100 µM | EC50 [4]: 48.9 µM | EC50 [2]: 35.1 µM

COC(=O)C1=C(CN2CCOCC2)NC(c2ccccn2)=NC12CCc1ccc(F)cc12 (single isomer, unassigned) [Compound 96b]
CC50 [5]: > 100 µM | CC50 ([1]; human): > 100 µM | EC50 [4]: 18.7 µM | EC50 [2]: 30.3 µM

COC(=O)C1=C(C)NC(c2ncc(F)cc2F)=NC12c1ccccc1OC2(F)F (single isomer, unassigned) [Compound 106b]
CC50 [5]: > 25 µM | CC50 ([1]; human): > 100 µM | EC50 [4]: > 25 µM | EC50 [2]: 29.4 µM

COC(=O)C1=C(C)NC(c2ncc(F)cc2F)=NC12CC(C)(C)c1ccccc12 (single isomer, unassigned) [Compound 134b]
CC50 [5]: > 50 µM | CC50 ([1]; human): 35.8 µM | EC50 [4]: > 50 µM | EC50 [2]: 41.9 µM

COC(=O)C1=C(C)NC(c2ncc(F)cc2F)=NC1(c1ccc(F)c(F)c1)C(F)F (single isomer, unassigned) [Compound 151b]
CC50 [3]: > 25 µM | EC50 [4]: 3.68 µM | EC50 [2]: 4.25 µM

COC(=O)C1=C(C)NC(c2ncccc2F)=NC1(C)c1ccc(F)c(F)c1 (single isomer, unassigned) [Compound 158b]
CC50 [3]: > 25 µM | EC50 [4]: > 25 µM | EC50 [2, 9]: > 100 µM

COC(=O)C1=C(C)NC(c2ncccn2)=NC1(C)c1ccc(F)c(F)c1 (single isomer, unassigned) [Compound 159b]
CC50 [3]: > 25 µM | EC50 [4]: > 25 µM | EC50 [2]: > 100 µM

COC(=O)C1=C(C)NC(SC)=NC1(C)c1ccc(F)c(F)c1 (single isomer, unassigned) [Compound 160b]
CC50 [3]: > 25 µM | EC50 [4]: 10.5 µM | EC50 [2]: 0.451 µM

COC(=O)C1=C(C#N)NC(c2ncc(F)cc2F)=NC1(C)c1ccc(F)c(F)c1 (single isomer, unassigned) [Compound 163b]
CC50 [3]: > 25 µM | EC50 [4]: > 25 µM | EC50 [2]: > 100 µM

COC(=O)C1=C(C)NC(c2nccs2)=NC12C(F)=C(F)c1cc(F)ccc12 (single isomer, unassigned) [Compound 166b]
CC50 [5]: > 25 µM | EC50 [4]: 15.5 µM | EC50 [2]: 0.197 µM

COC(=O)C1=C(CN2CCOCC2)NC(c2ccccn2)=NC12c1ccc(F)cc1C(F)C2(F)F (single isomer, unassigned) [Compound 168B]
CC50 [5]: > 25 µM | EC50 [4]: 1.49 µM | EC50 [2]: 5.73 µM

COC(=O)C1=C(C)NC(c2nccs2)=NC12C(F)=Cc1c2ccc(F)c1F (single isomer, unassigned) [Compound 174b]
CC50 [5]: > 25 µM | EC50 [4]: > 25 µM

COC(=O)C1=C(C)NC(c2ncc(F)cc2F)=NC1(C)c1ccc(F)c(F)c1 (stereo not shown) [132b •MsOH]
CC50 [3]: > 25 µM | EC50 [4, 10]: 0.803 µM | EC50 [2, 9]: 0.694 µM

COC(=O)C1=C(C)NC(c2ncc(F)cc2F)=NC1(C)c1ccc(Cl)c(F)c1 (stereo not shown) [156 •MsOH]
CC50 [3]: > 25 µM | EC50 [4]: 1.09 µM | EC50 [2]: 1.93 µM

COC(=O)C1=C(C)NC(c2ncc(F)cc2F)=NC12CCc1c2ccc(F)c1F (stereo not shown) [Compound 100]
CC50 at 6 days [6]: > 100 µM | EC50 [4, 10]: 0.506 µM | CC50 at 4 days [7]: > 100 µM | EC50 [2, 9]: 0.546 µM

COC(=O)C1=C(CN2CCOCC2)NC(c2ncc(F)cc2F)=NC12CCc1c2ccc(F)c1F (stereo not shown) [Compound 101]
CC50 at 6 days [6]: > 25 µM | EC50 [4, 10]: 0.073 µM | CC50 at 4 days [7]: > 50 µM | EC50 [2, 9]: < 0.098 µM

COC(=O)C1=C(C)NC(c2ncc(F)cc2F)=NC12c1ccccc1OC2(F)F (stereo not shown) [Compound 106]
CC50 at 6 days [6]: > 100 µM | EC50 [4, 10]: > 25 µM | CC50 at 4 days [7]: > 25 µM | EC50 [2, 9]: 98.4 µM

COC(=O)C1=C(CN2CCOCC2)NC(c2ccccn2)=NC12c1ccccc1CC2(F)F (stereo not shown) [Compound 110]
CC50 at 6 days [6]: > 100 µM | EC50 [4, 10]: 6.14 µM | CC50 at 4 days [7]: > 50 µM | EC50 [2, 9]: 10.7 µM

COC(=O)C1=C(C)NC(c2ccccn2)=NC12c1ccccc1CC2(F)F (stereo not shown) [Compound 111]
CC50 at 6 days [6]: > 100 µM | EC50 [4, 10]: > 50 µM | CC50 at 4 days [7]: > 50 µM | EC50 [2, 9]: 81.8 µM

COC(=O)C1=C(CN2CCOCC2)NC(c2ccccn2)=NC12C(F)=Cc1ccccc12 (stereo not shown) [Compound 112]
CC50 at 6 days [6]: > 100 µM | EC50 [4, 10]: 0.41 µM | CC50 at 4 days [7]: > 50 µM | EC50 [2, 9]: 0.624 µM

COC(=O)C1=C(C)NC(c2ncc(F)cc2F)=NC12c1ccccc1CC2(F)F (stereo not shown) [Compound 115]
CC50 at 6 days [6]: > 100 µM | EC50 [4, 10]: > 25 µM | CC50 at 4 days [7]: > 25 µM | EC50 [2, 9]: > 100 µM

COC(=O)C1=C(C)NC(c2ncc(F)cc2F)=NC12C(=O)N(C)c1cc(F)ccc12 (stereo not shown) [Compound 118]
CC50 at 6 days [6]: > 100 µM | EC50 [4, 10]: > 50 µM | CC50 at 4 days [7]: > 50 µM | EC50 [2, 9]: 40.7 µM

COC(=O)C1=C(CN2CCOCC2)NC(c2ccccn2)=NC12c1ccccc1OC2(F)F (stereo not shown) [Compound 124]
CC50 at 6 days [6]: 48.4 µM | EC50 [4, 10]: 2.41 µM | CC50 at 4 days [7]: > 25 µM | EC50 [2, 9]: 13 µM
